{"source": "patent US20190209581A1", "about": "“DOSAGE REGIMEN FOR TREATMENT OF SOLID TUMORS” (Eli Lilly and Company, priority 2016, published 2019)", "key": {"Dogs (beagle)": {"test_system": "Dogs (beagle)", "assay": "Toxicity study in dogs, oral gavage, daily for 6 days or every other day for 3 doses", "format": "in vivo, dog", "conditions": "for Survival: dogs", "method": "A study is carried out to assess the Toxicity and Toxicokinetics of 4,4,4-trifluoro-N-[(1S)-2-[[(7S)-5-(2-hydroxyethyl)-6-oxo-7H-pyrido[2,3-d][3]benzazepin-7-yl]amino]-1-methyl-2-oxo-ethyl]butanamide in dogs given oral gavage doses of 0 or 1.3 mg/kg once daily for 6 days or 0.3 or 3 mg/kg every other day for a total of 3 doses. 4,4,4-Trifluoro-N-[(1S)-2-[[(7S)-5-(2-hydroxyethyl)-6-oxo-7H-pyrido[2,3-d][3]benzazepin-7-yl]amino]-1-methyl-2-oxo-ethyl]butanamide is combined with a vehicle comprising 1% carboxymethylcellulose sodium, 0.25% polysorbate 80 and 0.05% Dow Corning® Antifoam 1510-US in purified water. Dogs (beagle), Covance Research Products, 1 animal/sex/group are fed daily (soon after dosing) and are fasted overnight prior to scheduled chemistry blood collections and necropsy. The test compound is administered by oral gavage in a volume of 2 mL/kg body weight. The duration of the study for all groups is 6 days.\nGroups 01 and 04: At a minimum, observations are recorded daily before dosing, approximately 1 hour postdose, and in the afternoon, with the following exception: afternoon clinical observations are not recorded on weekends.\nGroups 02 and 03: At a minimum, observations are recorded before dosing, approximately 1 hour postdose, and in the afternoon on Days 2 and 6; before dosing and approximately 1 hour postdose on Day 4; and at approximately the same times as Groups 01 and/or 04 on Days 3, 5, and 7.\nAnimals are weighed on Days 1 and 7.\nA qualitative assessment of food consumption is made each day by visual estimation of the amount of food remaining (recorded in increments of 25%).\nGroups 01 and 04: Blood samples are collected before dosing on Day 1 and on Day 7 (not dosed on Day 7).\nGroups 02 and 03: Blood samples are collected before dosing on Days 1 and 6.\nUrine samples are collected from all animals by cystocentesis at the scheduled necropsy."}, "[1]": {"test_system": "U-87 MG human glioblastoma cell line", "assay": "Tumor growth inhibition, U-87 MG xenograft", "format": "in vivo", "conditions": "U-87 MG in mice, oral 8 mg/kg, (Mon, Wed, Fri)x4; p <0.0001", "method": "(§1) To evaluate in vivo efficacy and effect of 4,4,4-Trifluoro-N-[(1S)-2-[[(7S)-5-(2-hydroxyethyl)-6-oxo-7H-pyrido[2,3-d][3]benzazepin-7-yl]amino]-1-methyl-2-oxo-ethyl]butanamide on inhibition of Notch processing pharmacodynamics (PD), several cell lines- and patient-derived xenograft models are used. A2780 is a human ovarian cell line (Sigma-Aldrich, No. 93112519); SW480 is a human colorectal cell line (ATCC No. CCL-228); HCT 116 is a human colorectal cell line (ATCC No. CCL-247); U-87 MG is a human glioblastoma cell line (ATCC No. HTB-14); A375 is a human malignant melanoma cell line (ATCC No. CRL-1619); K-562 is a human chronic myelogenous leukemia (CML) cell line characterized by the presence of a fusion transcript comprised of the Bcr and Abl1 genes (ATCC No. CCL-243); Jurkat; HEL 92.1.7 is a human erythroleukemia cell line (ATCC No. TIB-180). […] Tumor growth and body weight are monitored over time to evaluate efficacy and signs of toxicity. Bidimensional measurements of tumors are performed twice a week and tumor volumes are calculated based on the following formula: (Tumor Volume)=[(L)×(W2)×(Π/6)] where L is mid-axis length and W is mid-axis width. […] The log volume data are analyzed with a two-way repeated measures analysis of variance by time and treatment using the MIXED™ procedures in SAS™ software (version 8.2). […]"}, "[2]": {"test_system": "K-562 human chronic myelogenous leukemia (CML) cell line", "assay": "Tumor growth inhibition, K-562 xenograft", "format": "in vivo", "conditions": "K-562 in mice, oral 8 mg/kg, (Mon, Wed, Fri)x4; p <0.05 to <0.001", "method": "as §1"}, "[3]": {"test_system": "human colon carcinoma (EL2144)", "assay": "Tumor growth inhibition, patient-derived tumor model EL2144", "format": "in vivo", "conditions": "EL2144 in mice, oral 10 mg/kg, Q2Dx8; p <0.0001", "method": "as §1"}}, "note": "Entries after “also recorded” stand apart in the source; their conditions may differ.", "data": [{"smiles": "C[C@H](NC(=O)CCC(F)(F)F)C(=O)N[C@@H]1C(=O)N(CCO)c2ncccc2-c2ccccc21", "note": "[Compound 1, 4,4,4-trifluoro-N-[(1S)-2-[[(7S)-5-(2-hydroxyethyl)-6-oxo-7H-pyrido[2,3-d][3]benzazepin-7-yl]amino]-1-methyl-2-oxo-ethyl]butanamide]", "values": [{"measurement": "Compound-related signs", "setting": "Dogs (beagle); both, beagle, dog, in vivo, 1.3 mg/kg, 6 days", "result": "lateral recumbency and labored respiration for the female on Day 7, decreased activity for both animals on Days 6 and 7, and dehydration (decreased skin elasticity) for both animals on Day 7"}, {"measurement": "Food consumption", "setting": "Dogs (beagle); dog, in vivo", "result": "Decreased food consumption also occurred in all compound-treated groups"}, {"measurement": "Gastrointestinal toxicity, daily versus three times/week at same total weekly dose", "setting": "Dogs (beagle); dog, in vivo", "result": "more severe gastrointestinal toxicity compared to three times/week dosing"}, {"measurement": "Tolerability of once daily administration at same total weekly dose", "setting": "Dogs (beagle); dog, in vivo", "result": "once daily administration is not tolerated"}, {"measurement": "Compound-related signs", "setting": "Dogs (beagle); dog, in vivo, 0.3 mg/kg", "result": "mucoid, and watery feces"}, {"measurement": "Pathology findings", "setting": "Dogs (beagle); dog, in vivo, 0.3 mg/kg", "result": "adverse inflammatory changes in the large intestine and evidence of systemic inflammation"}, {"measurement": "Intestinal changes", "setting": "Dogs (beagle); dog, in vivo, 1.3 mg/kg", "result": "up to marked mucoid enteropathy with red fluid intestinal contents, erosion, ulceration, and mostly neutrophilic mixed inflammation"}, {"measurement": "Other symptoms (feces)", "setting": "Dogs (beagle); dog, in vivo, 1.3 mg/kg", "result": "red, dark (female only), mucoid, and watery (female only), feces"}, {"measurement": "Compound-related signs", "setting": "Dogs (beagle); dog, in vivo, 3 mg/kg", "result": "red (male only), mucoid, and watery (male only), feces"}, {"measurement": "Survival", "setting": "Dogs (beagle); 1.3 mg/kg daily", "result": "euthanized following 6 daily doses due to poor condition"}, {"measurement": "Survival", "setting": "Dogs (beagle); 0.3 or 3 mg/kg 3 times/week (Days 2, 4, and 6)", "result": "survived until the scheduled termination; also recorded: survived until the scheduled necropsy"}, {"measurement": "% TGI", "setting": "[1]", "result": "53.33 (<0.0001) %"}, {"measurement": "% TGI", "setting": "[2]", "result": "54.96 (<0.05 to %"}, {"measurement": "% TGI", "setting": "[3]", "result": "53.37 (<0.0001) %"}]}]}
